Here are results for 1 molecule from PMC10541456, “A phase I, single‐center, open‐label study to investigate the absorption, distribution, metabolism and excretion of encorafenib following a single oral dose of 100 mg [ ^14C] encorafenib in healthy male subjects” (Pharmacology Research & Perspectives, 2023).

Data set [1] can be described thus: Metabolite profiles in excreta (urine, feces). The class given is in vivo, human. The protocol:
A pool of equal percent volume of urine (0–48 h) was prepared for each subject. An aliquot (1.5 mL) of the pooled sample was concentrated ~7‐fold by reducing the volume under nitrogen and then combined with 50 μL methanol:water:acetic acid (50:50:0.1; v/v) followed by centrifugation at 3500 rpm (~1000 × g) for 10 min. The aliquot was then injected onto the UPLC system with off‐line radioactivity detection.
A pool of approximately equal percent by weight of feces (from 0–96 h or 0–120 h) was prepared for each subject. Feces samples were extracted two times with 2 equivalent volumes of acetonitrile: each time with 10 min of vortexing, 10 min of sonication, and centrifugation at 3500 rpm (~1000 × g) for 10 min. An aliquot of the combined supernatant was concentrated approximately 5‐fold by evaporating to dryness under nitrogen and reconstituting in methanol:water:acetic acid (50:50:0.1, v/v) 45 μL of the concentrated, reconstituted samples was injected onto the UPLC system with off‐line radioactivity detection.
Characterization and quantification of the metabolites of encorafenib in select human plasma and excreta samples were performed by the Department of DMPK (Drug Metabolism and Pharmacokinetics) at the Novartis Institutes for Biomedical Research (East Hanover, NJ, USA) using liquid chromatography (LC) coupled to radioactivity detectors and mass spectrometers (MS).
The analytical system consisted of a Waters ACQUITY UPLC system (Waters), equipped with a Phenomenex Luna PFP column (3 μm, 4.6 × 150 mm) (Phenomenex) and a guard column of the same phase, both maintained at a temperature of 30°C. The mobile phases consisted of 10 mM ammonium acetate containing 0.1% formic acid (v/v) (solvent A) and CH3CN (solvent B). The total run time was 80 min. A linear gradient elution program was used with a flow rate of 1 mL/min as described in Table 1.
The UPLC effluent was split 4:1, with […] of the total flow introduced to the mass spectrometer for mass spectral analysis and the remaining flow used for radioactivity detection.
For off‐line radioactivity detection, the eluant was collected into 96‐well Lumaplate (Packard Instrument Co) microplates using a Collect Pal fraction collector (Leap Technologies) with a collection time of 10 seconds per well. The LumaPlates were sealed after drying and counted for 10–50 min per well on a Packard Topcount microplate scintillation counter. The structural characterization of metabolites was carried out using the above UPLC profiling method coupled to a two‐channel Z‐spray (LockSprayTM) time‐of‐flight mass spectrometer (Synapt MS). Leucine enkephalin was used as the mass reference standard for exact mass measurements and was delivered via the second spray channel at a flow rate of 5 μL/minute. […]
All radioactivity data were transferred to Laura software (version 4.2.2.24, Lab Logic Ltd, UK) to generate and integrate radio‐chromatograms. Radioactive peaks for quantitative analysis were manually selected from the plots. The radioactivity in the region encompassing the beginning and end of the peak was summed. All further calculations were based on radioactivity.
The percent of radioactivity (%RA) in a particular peak, Z, was calculated as follows in Equation (1): (1) %RAinZ=DPMin PeakZ/totalDPMinallintegrated peaksx100
The concentration or amount of each component was calculated as % RA (expressed as a fraction) multiplied by the total concentration of radioactivity in plasma, or the percent of dose in the excreta.

Data set [2] deals with CYP2C19. On the set-up: method as in earlier work. The conditions noted are these: cited from earlier work.

For `COC(=O)N[C@@H](C)CNc1nccc(-c2cn(C(C)C)nc2-c2cc(Cl)cc(NS(C)(=O)=O)c2F)n1` [encorafenib], the “Component in feces, average” value in data set [1] (feces pool 0–96 h or 0–120 h, average of four subjects) was 5.0 % of the administered radioactive dose. Besides, the “Metabolism as clearance pathway, share of the recovered radioactive dose” value in data set [1] (humans) is recorded as ~ 88%. For the same molecule, in data set [1] (in vivo), the “CLr as share of the glomerular filtration rate (7.5 L/h)” value was determined as 7%. Moreover, the CL renal in data set [1] (male, human, urine and plasma, oral, 100 mg, amount in urine divided by mean plasma AUCinf, read-out: Renal clearance (CLr), estimated mean (converted)) was 8.33 mL/min. For the same molecule, in data set [1] (urine pool 0–48 h, average of four subjects), the “Component in urine, average” value was 1.8 % of the administered radioactive dose. Also, the “Contribution of CYP2C19 to metabolism” value in data set [2] was 16%.
